Results taken from patent US20080255206A1, “Rxr Agonists and Antagonists, Alone or in Combination with Ppar Ligands, in the Treatment of Metabolic and Cardiovascular Diseases” (priority 2005, published 2008).

Key:
[1] = tested on: healthy, non-inflamed human skin; assay: Topical application on healthy human skin, clinical pilot trial; assay type: in vivo; design: key to Skin inflammation score (scale 0-4): 0: no signs or symptoms of skin inflammation; 1: slight erythema, desquamation and pruritus; 2: moderate erythema, desquamation and pruritus; 3: marked erythema, desquamation, pruritus/burning; 4: severe erythema, desquamation, pruritus, burning or even pain, edema, exsudation, ulceration; conditions: for Irritation or inflammation of the skin: human volunteer, 1% concentration daily to the skin for 2 weeks; for Skin inflammation score (scale 0-4): day 17
Excerpt: In a clinical pilot trial on one healthy volunteer compound 15 is applied epicutaneously in a concentration of 1% for its inflammation potential compared to that of the strong inflammation inducing agent 9-cis RA in concentrations of 0.1%, 0.3% and 1%.
The compounds are solved or suspended in ethanol/propylene glycol (1:1). They are applied epicutaneously twice daily, 7 days a week, for two concecutive weeks. The site of application is an area of 3×3=9 cm^2 on the abdominal skin. The volume is 0.1 ml per application.
The following signs and symptoms of skin inflammation are recorded: Erythema, desquamation (scaling), pruritus, burning, pain, exsudation, edema, ulceration. They are classified on a scale of: • 0=no signs or symptoms of skin inflammation • 1=slight erythema, desquamation and pruritus • 2=moderate erythema, desquamation and pruritus • 3=marked erythema, desquamation, pruritus/burning • 4=severe erythema, desquamation, pruritus, burning or even pain, edema, exsudation, ulceration
Treatment period lasts from day 1 to 14, the post-treatment observation period from day 15 to day 28.

skin of mice = assay: Topical administration to the skin of mice (irritation); assay type: in vivo; conditions: concentrations up to 2.5%
synovial fibroblasts = assay: In vitro cartilage degradation by synovial fibroblasts (sGAG release); assay type: cell-based, human; conditions: for sGAG release: 14 days
Protocol: Furthermore, it is determined whether this is accompanied by a modulation in the accumulation of the mRNA encoding catabolic enzyme matrix metalloproteinase-1 (MMP-1), responsible for degradation of human cartilage and consequently joint destruction in man. Adherent synovial fluid cells taken from a patient with RA are used after 5 passages in an in vitro assay for cartilage destruction. The cells incubated in flasks coated with 0.1% (0.1 g/100 ml) human cartilage powder are fixed using Matrigel® (BD Biosciences, Becton, Dickinson & Co., Boston, Mass., USA). The release of sulphated glycosaminoglycan (sGAG) into the culture medium is monitored by a commercial colorimetric test according to a method described by S. Björnsson, see Anal. […] This is conducted in the presence or absence of IL-1β (100 pg/ml).

[2] = tested on: human skin inflammation induced by topical 9-cis RA; assay: Therapeutic effect on 9-cis RA-induced human skin inflammation, clinical pilot trial; assay type: in vivo
Protocol: In the following pilot clinical trial on one healthy volunteer the compounds are applied epicutaneously. 9-cis RA being known for its skin inflammation potential is used in concentrations of 0.1%, 0.3% and 1%. Compound 15 (RXR antagonist) concentration is 1%. The compounds are solved in ethanol/propylene glycol (1:1). 9-cis RA is applied twice daily, 7 days a week, for two consecutive weeks. The site of application is an area of 3×3=9 cm^2 on the abdominal skin. The volume is 0.1 ml per administration. The treatment with compound 15, administered twice daily in a concentration of 1%, is started on day 15 when treatment with 9-cis RA is discontinued. This treatment lasts from day 15 to day 22. For a correct evaluation comparative areas with inflammation induced by 9-cis RA are treated with the vehicle, ethanol/propylene glycol, from day 15 to 22. The post-treatment period lasts until day 28.
The signs and symptoms of skin inflammation are recorded on a 0-4 scale, as described in example 21.
For evaluation of the anti-inflammatory effect of compound 15, the sum of the daily inflammation scores from day 15 to day 28 is determined, as well as the time to complete disappearance of skin inflammation from day 15 on.

[3] = tested on: skin inflammation induced by topical 9-cis RA; assay: Preventive and therapeutic effect on 9-cis RA-induced skin inflammation, human volunteer study; assay type: in vivo
Protocol: In this pilot clinical trial on one healthy volunteer, the substance 9-cis RA and compound 15 are administered epicutaneously. The inflammation-inducing agent 9-cis RA is used in a concentration of 0.3%. The RXR antagonist compound 15 is applied in a concentration of 1%. The compounds are solved in ethanol/propylene glycol (1:1) and administered twice daily. The site of application is the abdominal skin, with various areas of 3×3=9 cm^2. Volume per application is 0.1 ml.
The following three clinical settings at different sites are chosen: • 1. Induction of skin inflammation by 9-cis RA 9-cis RA is administered as a 0.3% solution twice daily from day 1 to day 14. The vehicle is administered from day 15 to disappearance of skin inflammation. • 2. Prevention of 9-cis RA-induced skin inflammation by RXR antagonist Compound 15 9-cis RA solution of 0.3% is administered twice daily from day 1 to day 14, each time followed subsequently by application of compound 15 as a 1% solution. • 3. Therapy of 9-cis RA-induced skin inflammation by RXR antagonist compound 15 9-cis RA solution of 0.3% is administered twice daily from day 1 to day 14. Compound 15 as a 1% solution is administered from day 15 until disappearance of skin inflammation.
The signs and symptoms of skin inflammation are recorded on a 0-4 scale, as described in example 21. The evaluation of the anti-inflammatory effect is based on the daily determination of the inflammation score (scale 0-4).
The following parameters serve as criteria for evaluation of the effect of 9-cis RA, the preventive effect of compound 15 and the therapeutic effect of compound 15. • 1. Sum of the daily inflammation scores from day 1 to day 28. Total inflammation score. • 2. Sum of the daily inflammation scores from day 15 to disappearance of skin inflammation. • 3. Time in days from day 15 to disappearance of skin inflammation.

[4] = absence of IL-1β, 10^−8 M, day 7
[5] = absence of IL-1β, 10^−8 M, day 14
[6] = absence of IL-1β, 10^−8 M, day 21
[7] = absence of IL-1β, 10^−8 M, day 28
[8] = absence of IL-1β, 10^−8 M, day 35
[9] = presence of 100 pg/ml IL-1β, 10^−7 M
[10] = presence of 100 pg/ml IL-1β, 10^−8 M
[11] = presence of 100 pg/ml IL-1β, 10^−8 M, day 7
[12] = presence of 100 pg/ml IL-1β, 10^−8 M, day 14
[13] = presence of 100 pg/ml IL-1β, 10^−8 M, day 21
[14] = presence of 100 pg/ml IL-1β, 10^−8 M, day 28
[15] = presence of 100 pg/ml IL-1β, 10^−8 M, day 35
[16] = presence of 100 pg/ml IL-1β, 10^−9 M
[17] = 9-cis RA 0.1% day 1-14, followed by vehicle day 15-22
[18] = 9-cis RA 0.3% day 1-14, followed by vehicle day 15-22
[19] = 9-cis RA 1% day 1-14, followed by vehicle day 15-22
[20] = 9-cis RA 0.3% day 1 to day 14, then vehicle
[21] = 9-cis RA 0.1% day 1-14, followed by compound 15 1% day 15-22
[22] = 9-cis RA 0.3% day 1-14, followed by compound 15 1% day 15-22
[23] = 9-cis RA 1% day 1-14, followed by compound 15 1% day 15-22
[24] = Prevention: 9-cis RA 0.3% and compound 15 1%, both day 1 to day 14
[25] = Therapy: 9-cis RA 0.3% day 1 to day 14, compound 15 1% day 15 to disappearance of inflammation

SMILES	Irritation or inflammation of the skin [1]	Irritation or inflammation of the skin (skin of mice)	Effect on cartilage destruction in vitro (in words) (synovial fibroblasts; absence of IL-1β)	sGAG release (synovial fibroblasts; absence of IL-1β, 10^−7 M) [µg/mL]	sGAG release (synovial fibroblasts; absence of IL-1β, 10^−8 M) [µg/mL]	Cumulative sGAG (synovial fibroblasts; [4]) [µg/mL]	Cumulative sGAG (synovial fibroblasts; [5]) [µg/mL]	Cumulative sGAG (synovial fibroblasts; [6]) [µg/mL]	Cumulative sGAG (synovial fibroblasts; [7]) [µg/mL]	Cumulative sGAG (synovial fibroblasts; [8]) [µg/mL]	sGAG release (synovial fibroblasts; absence of IL-1β, 10^−9 M) [µg/mL]	sGAG release (synovial fibroblasts; [9]) [µg/mL]	sGAG release (synovial fibroblasts; [10]) [µg/mL]	Cumulative sGAG (synovial fibroblasts; [11]) [µg/mL]	Cumulative sGAG (synovial fibroblasts; [12]) [µg/mL]	Cumulative sGAG (synovial fibroblasts; [13]) [µg/mL]	Cumulative sGAG (synovial fibroblasts; [14]) [µg/mL]	Cumulative sGAG (synovial fibroblasts; [15]) [µg/mL]	sGAG release (synovial fibroblasts; [16]) [µg/mL]	further results
CC1=C(/C=C/C2=C(/C=C/C(C)=C/C(=O)O)CCCCC2)C(C)(C)CCC1 [Compound 1, (2E,4E)-3-methyl-5-[2-[(E)-2-(2,6,6-trimethyl-1-cyclohexen-1-yl)ethenyl]-1-cyclohepten-1-yl]-2,4-pentadienoic acid]	does not induce any irritation or inflammation of the skin	does not lead to irritation or inflammation of the skin	–	–	–	–	–	–	–	–	–	–	–	–	–	–	–	–	–	–
CC1=C(/C=C/C(C)=C\C=C\C(C)=C\C(=O)O)C(C)(C)CCC1 [9-cis RA, 9-cis retinoic acid, reference compound]	–	–	increases cartilage destruction in vitro in a dose-dependent manner	189	107	44	107	206	253	292	64	221	189	68	189	330	407	441	204	Skin inflammation score (scale 0-4) ([1]; 0.1% epicutaneously twice daily day 1-14): 1; Skin inflammation (in words) ([1]; 0.1% epicutaneously twice daily, days 12, 13 and 14): moderate inflammation; Skin inflammation score (scale 0-4) ([1]; 0.3% epicutaneously twice daily day 1-14): 2; Skin inflammation (in words) ([1]; 0.3% epicutaneously twice daily, days 12, 13 and 14): moderate inflammation; Skin inflammation score (scale 0-4) ([1]; 1% epicutaneously twice daily day 1-14): 3; Skin inflammation (in words) ([1]; 1.0% epicutaneously twice daily, days 12, 13 and 14): marked inflammation; Sum of daily inflammation scores from day 15 to disappearance of inflammation [2, 17]: 6.5; Time in days from day 15 to disappearance of inflammation [2, 17]: 8 days; Sum of daily inflammation scores from day 15 to disappearance of inflammation [2, 18]: 14; Time in days from day 15 to disappearance of inflammation [2, 18]: 13 days; Sum of daily inflammation scores from day 15 to disappearance of inflammation [2, 19]: 14.5; Time in days from day 15 to disappearance of inflammation [2, 19]: 9 days; Sum of daily inflammation scores from day 15 to disappearance of inflammation [3, 20]: 14; Sum of daily inflammation scores, day 1 to day 28. Total inflammation score [3, 20]: 18; Time in days from day 15 to disappearance of inflammation [3, 20]: 13 days
CCCCOc1c(\C(C)=C/C=C/C(C)=C/C(=O)O)cc(C(C)(C)C)cc1C(C)(C)C [Compound 15, (2E,4E,6Z)-7-[2-butoxy-3,5-bis(1,1-dimethylethyl)phenyl]-3-methyl-2,4,6-octatrienoic acid]	does not induce any irritation or inflammation of the skin	does not lead to irritation or inflammation of the skin	no effect on the basal activity of synovial fibroblast	39	57	44	57	57	39	34	46	41	89	67	89	89	173	56	144	Skin inflammation (in words) ([1]; 1% epicutaneously twice daily day 1-14, observation to day 28): well tolerated with no skin inflammation; Skin inflammation (in words) ([1]; 1% epicutaneously twice daily day 1-14, observation to day 28, listed as Compound A): does not induce any objective or subjective symptoms; Effect on cartilage destruction in vitro (in words) (synovial fibroblasts; presence of IL-1β): markedly inhibits the IL-1β dependent cartilage destruction; Sum of daily inflammation scores from day 15 to disappearance of inflammation [2, 21]: 2.5; Time in days from day 15 to disappearance of inflammation [2, 21]: 3 days; Sum of daily inflammation scores from day 15 to disappearance of inflammation [2, 22]: 5.5; Time in days from day 15 to disappearance of inflammation [2, 22]: 6 days; Sum of daily inflammation scores from day 15 to disappearance of inflammation [2, 23]: 11; Time in days from day 15 to disappearance of inflammation [2, 23]: 8 days; Sum of daily inflammation scores from day 15 to disappearance of inflammation [3, 24]: 5; Sum of daily inflammation scores, day 1 to day 28. Total inflammation score [3, 24]: 11; Time in days from day 15 to disappearance of inflammation [3, 24]: 6 days; Sum of daily inflammation scores from day 15 to disappearance of inflammation [3, 25]: 5; Sum of daily inflammation scores, day 1 to day 28. Total inflammation score [3, 25]: 9; Time in days from day 15 to disappearance of inflammation [3, 25]: 6 days
